Data as given in patent publication US20240293367A1, “METHODS OF TREATING DISORDERS WITH A […]” (Cybin IRL Limited, priority 2023, published 2024).

Test: 28-day (4-week GLP) toxicology study in dogs, toxicokinetic exposure
Conditions: both sexes, dog, in vivo, toxicokinetic data, 28-day toxicology study in dogs, combined male and female
Text: The exposure limits will be applied on mean values within a cohort.

With `[2H]C([2H])([2H])N(C([2H])([2H])[2H])C([2H])([2H])C([2H])([2H])c1c[nH]c2cccc(O)c12` [psilocin-d10, 3-(2-(bis(methyl-d3)amino)ethyl-1,1,2,2-d4)-1H-indol-4-ol] the AUC(0-t) (read-out: predefined maximum exposure level, AUC0-24) was 123 ng·h/mL and the Cmax (read-out: predefined maximum exposure level, Cmax) was 63 ng/mL.
